Measurements reported in patent publication US20230345975A1, “COMPOSITIONS AND METHODS OF PRESERVING MEAT SUBSTITUTES” (Wisconsin Alumni Research Foundation, priority 2016, published 2023).
“Also recorded” adds a separate entry of the source. Where two headings read alike, the source gives them in different places. Values belong to the compound of their own block, whether it stands above or below them.

Legend:
[1] = cited from earlier work
[2] = target: plant Hb (soybean hemoglobin; Lba) in meat analog (Glycine max, UniProt P02238); assay: Color stability of meat analog during refrigerated light display
Experimental: FIG. 1—Color stability of meat analog. Treatments: Water (W); 2.5 mmol/kg tissue Niacin (NA). Packaging: High oxygen package (80% O2, 20% CO2). Water content: 3% water capacity. Days under light (˜300 ft): 4 days under light display at 1-3° C.
FIG. 3—Effect of high oxygen during packaging. […] W-water added. All samples were stored at 1-3° C. during light display (300 foot candles).
The niacin can also be added to the solid plant protein/plant fat matrix already containing the added plant Hb. There is approximately 150 μmol of plant heme/kg meat analog. Therefore, a targeted final concentration of niacin would be 150 μmol/kg meat analog, which is equivalent to 18.5 mg niacin per kg meat analog.
Niacin is added to the meat analog already containing the plant Hb (soybean hemoglobin; Lba) and the product is stored under lights in high oxygen packaging during 4 days of refrigerated storage.

soybean Hb (Lba) = soybean Hb (Lba) (Glycine max, UniProt P02238); assay: Redness (a-value) of Lba solutions after exposure to 35 fc of light for 4 days; conditions: for Redness (a-value) at day 4: 35 fc light, 4 days, main effect over pH
Experimental: FIG. 2—Effect of pH and different molar ratios of niacin to soybean Hb on the redness of Lba solutions. Measurement after exposure to 35 fc of light for 4 days
100 grams of meat analog containing a 3:1 dose of niacin would provide 5.9 mg niacin; a 6:1 dose would provide 11.8 mg niacin.

[3] = cited from earlier work; remark: listed apart in the source

soybean Hb (Lba), sequence (P02238 whole entry): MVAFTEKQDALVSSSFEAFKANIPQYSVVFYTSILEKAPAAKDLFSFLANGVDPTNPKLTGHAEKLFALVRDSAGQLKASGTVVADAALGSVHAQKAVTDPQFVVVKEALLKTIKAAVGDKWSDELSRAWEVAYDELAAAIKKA
plant Hb (soybean hemoglobin; Lba) in meat analog, sequence (P02238 whole entry): as above

Compound: N[C@@H](Cc1c[nH]cn1)C(=O)O [histidine, Histidine]
pKa ([1]; buffer): ~6
pKa of the conjugate acid (protonated form) of the imidazole side chain [1]: approximately 6.0

Compound: O=C1O[C@H]([C@@H](O)CO)C(O)=C1O [Ascorbic acid]
color stabilization of meat analog ([2]; high oxygen packaging 80% O2/20% CO2, light display 300 foot candles, 1-3° C.): did not stabilize color

Compound: Imidazole
pKa as an acid ([1]; acidic proton on N-1): 14.5
pKa of the conjugate acid (pKBH+) ([1]; as a base, basic site N-3): approximately 7

time for which meat analog maintained color ([2]; storage entirely in 80% O2/20% CO2, light display 300 foot candles, 1-3° C.): ≤ 11 days
ability to stabilize color in meat analog after change of packaging ([2]; transferred from 80% O2/20% CO2 at day 4 to air-permeable overwrap, assessed at day 8): lost
stabilization of red color of Lba solution versus control with no niacin (soybean Hb (Lba); 1:1 (niacin:Lba) ratio): stabilized red color better than control
Redness (a-value) at day 4 (soybean Hb (Lba); niacin:Lba molar ratio 1:1): 4.10c
Redness (a-value) at day 4 (soybean Hb (Lba); niacin:Lba molar ratio 3:1): 5.35b
Redness (a-value) at day 4 (soybean Hb (Lba); niacin:Lba molar ratio 6:1): 5.79a
Compound: O=C(O)c1cccnc1 [niacin, nicotinic acid]
color retention of meat analog ([2]; 2.5 mmol/kg niacin, high oxygen package (80% O2, 20% CO2), 4 days under light display at 1-3° C.): retains a superior color; also recorded: retain a pink color for four days
Tolerable Upper Intake Level (UL) ([3]; European Food Safety Authority): 10 mg/day
Tolerable Upper Intake Level (UL) ([3]; Food and Nutrition Board of the U.S. Institute of Medicine): 35 mg/day
